Measured values as given in patent US20250136641A1, “PEPTIDES AND COMPOSITIONS FOR USE IN COSMETICS, FOOD AND MEDICINE” (priority 2022, published 2025).
Ends that are not written are not given here.

Legend:
Nrf2 = assay: Subcellular localization of Nrf2 in HEKa cells (immunofluorescence); assay type: cell-based, human; settings: 0.01 or 0.05 mg/mL peptide, 24 hours, vs untreated cells
TLR2 = TLR2 levels in human epidermal keratinocytes after IFNγ (ELISA); assay type: cell-based
53BP1 = assay: DNA damage (53BP1 foci) under oxidative stress in HEKa cells; assay type: cell-based, human; settings: 100 μM H2O2, 0.01 or 0.05 mg/mL peptide, vs cells treated only with H2O2
catalase = assay: Levels or synthesis of catalase enzyme in HEKa cells (ELISA); assay type: cell-based, human; settings: 24 hours
TRF1 [1] = assay: TRF1 foci per cell in HEKa cells (immunofluorescence); assay type: cell-based, human; settings: basal condition, 0.005 mg/mL peptide, vs untreated
[2] = test system: inflammation-related genes; assay: Expression of inflammation-related genes (RT-qPCR) in HEKa cells; assay type: cell-based, human; settings: 0.01 mg/mL peptide, vs untreated basal sample
TRF1 [3] = assay: TRF1 levels in CHA9.3 cells (immunofluorescence); assay type: cell-based; settings: 0.125 mg/mL peptide, 24-hour incubation, vs DMSO control
IL-8 = IL-8 secretion by HaCaT keratinocytes (ELISA), with or without IFNγ; assay type: cell-based, human
[4] = test system: inflammation-related miRNAs; assay: Expression of inflammation-related miRNAs (RT-qPCR) in HEKa cells; assay type: cell-based, human; settings: 0.01 mg/mL peptide, 24 h, vs untreated basal sample
HDFa73 (HDFa from adult) = assay: Telomere length in HDFa cells (qPCR); assay type: cell-based, human; settings: 48 hours

## GYYELND-NH2 [SEQ ID NO: 2-NH2]
Nrf2
  Nrf2 translocation into the nuclei: Nrf2 translocation from the cytoplasm to the nuclei in a concentration dependent manner
TLR2; HEKa cells after IFNγ, highest peptide concentration (0.05 mg/mL), 24 hours
  decrease in levels of TLR2: 19%
TLR2; HEKa cells, 24 hours 10 ng/mL IFNγ, then 0.01 or 0.05 mg/mL peptide for 24 hours
  levels of TLR2: lower the levels of TLR2 after exposure to IFNγ in a dose dependent-manner
53BP1
  53BP1 foci per cell: decrease in 53BP1 foci
catalase; HEKa cells, 0.005, 0.01 or 0.05 mg/mL peptide, catalase/total protein vs basal
  levels of catalase: increase the levels of catalase in a dose-dependent manner
catalase; HEKa cells, highest concentration (0.05 mg/mL), vs basal
  increase in levels of catalase: 47%
TRF1 [1]
  TRF1 foci per cell: increase in TRF1
[2]; 6 h
  HMOX1 gene expression: upregulation
  IRAK3 gene expression: upregulation
  TNFAIP3 gene expression: upregulation
  TOLLP gene expression: upregulation
[2]; 24 h
  CXCL8 gene expression: downregulated
  IL1B gene expression: downregulated
  IL6 gene expression: downregulated
  MMP3 gene expression: downregulated
  NFKB1 gene expression: downregulated
  NQO1 gene expression: upregulated
  TLR2 gene expression: downregulated
  TNF gene expression: downregulated
TRF1 [3]
  TRF1 intensity: increase in TRF1
IL-8; 48 hours, 0.005, 0.01 or 0.05 mg/mL together with IFNγ at 10 ng/mL, compared to positive control (IFNγ alone)
  secretion of IL-8 under inflammatory conditions: decrease, in a dose-dependent manner
IL-8; without IFNγ, all concentrations tested (SEQ ID NO: 2-NH2 0.005, 0.01, 0.05 mg/mL; SEQ ID NO: 3-NH2 0.01, 0.05 mg/mL), vs untreated cells
  secretion of IL-8 under basal conditions: decreased the secretion of IL-8 in a dose-dependent manner but at a lower degree that under inflammatory conditions
[4]
  miR-21-5p expression: upregulate
  miR-146a-5p expression: upregulate
HDFa73 (HDFa from adult); 0.005 mg/mL peptide
  telomeres longer than untreated HDFa73: 17%
HDFa73 (HDFa from adult); 0.01 mg/mL peptide
  telomeres longer than untreated HDFa73: 30%
